The source of these data is publication PMC9394386 (Cancer Discovery, 2022).

Values joined by “and” are separate entries in the source; they are usually repeats but may differ in a detail not shown here. Equal entries are not always repeated. Positions of bridges follow the written chain, without caps; N, C: chain ends. Non-standard residues stand in square brackets, D forms with d. Residues, ends and D or L forms follow the SMILES beside them. NMeF = CN[C@@H](Cc1ccccc1)C(=O)O; NMeNle = CCCC[C@H](NC)C(=O)O; Sar = CNCC(=O)O Bounds are passed on as bounds.

The target of series [1] is T1, PD-L1 (aa 19-239) (Homo sapiens, UniProt Q9NZQ7). Kind of series: SEC-MALS of PD-L1 complexes. Format: binding. Particulars: 15 µmol/L PD-L1, 100 µmol/L compound.
T1 sequence (Q9NZQ7 19-239): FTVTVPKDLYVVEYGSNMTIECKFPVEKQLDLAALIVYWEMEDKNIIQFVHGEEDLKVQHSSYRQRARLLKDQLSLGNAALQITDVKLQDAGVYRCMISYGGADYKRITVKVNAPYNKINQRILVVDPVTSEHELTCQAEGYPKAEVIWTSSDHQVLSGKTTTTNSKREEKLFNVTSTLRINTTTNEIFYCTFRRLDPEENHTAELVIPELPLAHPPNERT
The next series addresses human PD-L2 (Homo sapiens, UniProt Q9BQ51). In words: PD-L2/PD-1 HTRF binding assay.
The test system of the next series is MDA-MB-231 tumors. Kind of series: MDA-MB-231 tumor efficacy in NSG mice. Format: in vivo, mouse. Particulars: 20 mg/kg.
The test system of the next series is NFAT signaling. Kind of series: NFAT reporter assay. Format: cell-based. The following applies: read-out: NFAT activation (IC50 in Table 1, EC50 in text).
Series [2] concerns the target T2, PD-L1 on monocytes (Homo sapiens, UniProt Q9NZQ7). Kind of series: Unoccupied PD-L1 on monocytes in human whole blood. Format: cell-based.
Series [3] concerns the target T1, PD-L1 (aa 19-239). In words: Isothermal titration calorimetry. Format: binding.
A short description of a further series: Tolerability in mice. Particulars: mouse, in vivo.
Series [4] has as its target PD-L1 on monocytes (Macaca fascicularis, UniProt G7PSE7). Kind of series: Unoccupied PD-L1 on monocytes in cynomolgus whole blood. Format: cell-based, cynomolgus monkey. Particulars: read-out: EC50, reducing unoccupied cell-surface PD-L1 on monocytes.
The subject of series [5] is plasma CXCL9, CXCL10, IFNγ, PD-L1. In words: Proteins in peripheral blood of phase I patients. Format: in vivo, human.
Series [6] concerns the target Human PD-L1-FLAG tag protein (Homo sapiens, UniProt Q9NZQ7). Kind of series: SPR antibody competition. Particulars: 1 µM. Format: binding.
For another series, the target named is cynomolgus PD-L1 (Macaca fascicularis, UniProt G7PSE7). In words: PD-L1/PD-1 HTRF binding assay, cynomolgus PD-L1.
cynomolgus PD-L1, sequence (G7PSE7 19-239): as the sequence (Q9NZQ7 19-239) above, with A33T, A34S, S62N, R68Q, Q82R, F173L, T185A, T192I, H215L counted along it
cynomolgus PD-L1, sequence (Q15116 25-167 partner): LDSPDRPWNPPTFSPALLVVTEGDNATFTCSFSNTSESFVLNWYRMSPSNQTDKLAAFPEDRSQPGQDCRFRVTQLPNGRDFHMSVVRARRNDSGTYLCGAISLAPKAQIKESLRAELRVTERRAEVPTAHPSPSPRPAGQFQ
Series [7] has as its target T3, PD-L1 (Homo sapiens, UniProt Q9NZQ7). In words: Flow cytometry competition with anti–PD-L1 mAbs on CHO PD-L1 cells. Format: cell-based. The following applies: 1 µmol/L.
Target sequence in this assay (Q9NZQ7 19-290): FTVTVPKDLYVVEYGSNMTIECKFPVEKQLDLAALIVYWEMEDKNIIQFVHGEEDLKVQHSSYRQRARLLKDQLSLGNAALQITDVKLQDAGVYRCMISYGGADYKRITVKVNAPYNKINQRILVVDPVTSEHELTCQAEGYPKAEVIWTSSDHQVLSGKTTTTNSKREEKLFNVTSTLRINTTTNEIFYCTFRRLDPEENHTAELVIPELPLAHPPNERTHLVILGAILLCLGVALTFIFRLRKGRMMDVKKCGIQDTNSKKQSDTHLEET
Series [8] is described as follows: 28-day toxicology study in rats. Format: in vivo, rat.
Series [9] has as its system MC38 huPD-L1 tumors. In words: MC38 huPD-L1 tumor efficacy in C57BL/6 mice. Format: in vivo, mouse.
Series [10] concerns the target T4, PD-L1 in CHO PD-L1 cells (Homo sapiens, UniProt Q9NZQ7). In words: Confocal microscopy of PD-L1 internalization. The following applies: 18 hours, INCB086550 1 µmol/L, atezolizumab 10 µg/mL. Format: cell-based.
In another series the target is mouse PD-L1 (Mus musculus, UniProt Q9EP73). In words: PD-L1/PD-1 HTRF binding assay, mouse PD-L1.
mouse PD-L1, sequence (Q9EP73 19-238 limits assumed): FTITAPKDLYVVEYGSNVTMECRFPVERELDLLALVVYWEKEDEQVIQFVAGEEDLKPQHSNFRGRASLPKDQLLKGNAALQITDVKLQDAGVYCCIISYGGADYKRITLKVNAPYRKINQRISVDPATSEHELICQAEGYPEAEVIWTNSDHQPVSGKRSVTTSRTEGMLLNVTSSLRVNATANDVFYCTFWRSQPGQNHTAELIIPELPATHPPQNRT
Series [11] deals with T2, PD-L1 on monocytes. Kind of series: Available PD-L1 on monocytes from clinical study patients. Format: in vivo.
In series [12] the target is T5, PD-L1 on CHO PD-L1 cells (Homo sapiens, UniProt Q9NZQ7). Kind of series: Cell-based PD-1 binding assay. Particulars: concentrations ≥160 nmol/L.
T5 sequence (Q9NZQ7 19-290): as the sequence (Q9NZQ7 19-290) above
Series [13] deals with human PD-L1 on MBT2 clones (Homo sapiens, UniProt Q9NZQ7). In words: Isogenic MBT2 cell line PD-L1 internalization. The following applies: EC50, PD-L1 internalization (MIH1), 16 hours. Format: cell-based.
human PD-L1 on MBT2 clones, sequence (Q9NZQ7 19-127 limits assumed): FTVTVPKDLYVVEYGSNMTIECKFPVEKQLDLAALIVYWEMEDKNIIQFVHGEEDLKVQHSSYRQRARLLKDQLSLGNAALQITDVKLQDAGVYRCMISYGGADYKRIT
The subject of series [14] is PD-1–mediated SHP recruitment. In words: PD-1–SHP reporter assay. Format: cell-based. Particulars: read-out: IC50, SHP recruitment.
The target in another series is rat PD-L1 (Rattus norvegicus, UniProt D4AE25). In words: PD-L1/PD-1 HTRF binding assay, rat PD-L1. The following applies: human PD-1.
rat PD-L1, sequence (D4AE25 19-238): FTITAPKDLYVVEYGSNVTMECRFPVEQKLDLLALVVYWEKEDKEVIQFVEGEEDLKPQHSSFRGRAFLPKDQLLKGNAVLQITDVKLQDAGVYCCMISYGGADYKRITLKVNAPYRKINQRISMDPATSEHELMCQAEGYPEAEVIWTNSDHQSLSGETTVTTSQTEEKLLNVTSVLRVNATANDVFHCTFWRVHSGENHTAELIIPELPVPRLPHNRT
rat PD-L1, sequence (Q15116 25-167 partner): as the sequence (Q15116 25-167 partner) above
Series [15] in a line: 28-day toxicology study in monkeys. Format: in vivo, monkey.
The test system of series [16] is human T cells with CHO PD-L1 cells. Kind of series: Artificial antigen-presenting cell system, IFNγ secretion. Format: cell-based. The following applies: for Maximal levels of IFNγ, induction: atezolizumab at 10 nmol/L.
Series [17] addresses T5, PD-L1 on CHO PD-L1 cells. In words: Unoccupied and total PD-L1 by flow cytometry. Format: cell-based. Particulars: 18 hours.
The next series has as its system target lesion. Kind of series: Clinical activity in phase I study. Format: in vivo, human. The following applies: patient, week 24.
Series [18] has as its target T3, PD-L1. In words: PD-L1/PD-1 HTRF binding assay, human PD-L1.
Target sequence in this assay (Q9NZQ7 19-238 limits assumed): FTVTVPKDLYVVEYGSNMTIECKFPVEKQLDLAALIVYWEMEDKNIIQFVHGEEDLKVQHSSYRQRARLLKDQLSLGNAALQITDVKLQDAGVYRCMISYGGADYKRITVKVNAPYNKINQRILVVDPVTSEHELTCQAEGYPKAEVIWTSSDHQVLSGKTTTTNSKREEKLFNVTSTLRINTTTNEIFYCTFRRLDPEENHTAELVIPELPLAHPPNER
The target of series [19] is T5, PD-L1 on CHO PD-L1 cells. Kind of series: Live-cell imaging of PD-L1 internalization. Format: cell-based. Particulars: 1 µmol/L.
The target in series [20] is T4, PD-L1 in CHO PD-L1 cells. In words: Total PD-L1 by Western blot. Format: cell-based. The following applies: 0.2 or 1 µM.
Series [21] relates to MC38 huPD-L1 tumors. In words: MC38 huPD-L1 tumor efficacy in NSG mice. The following applies: NSG mice, 2, 20, 200 mg/kg b.i.d. Format: in vivo, mouse.
Series [22] concerns the target PD-L1 on MC38 huPD-L1 tumors (Homo sapiens, UniProt Q9NZQ7). Kind of series: PD-L1 levels on MC38 huPD-L1 tumors. Format: in vivo, mouse. The following applies: 200 mg/kg, clone MIH1.
Setting [23] is: all tested doses up to 1,000 mg/kg.

T2 sequence (Q9NZQ7 19-290): as the sequence (Q9NZQ7 19-290) above
T4 sequence (Q9NZQ7 19-290): as above
human PD-L2, sequence (Q9BQ51 20-219 limits assumed): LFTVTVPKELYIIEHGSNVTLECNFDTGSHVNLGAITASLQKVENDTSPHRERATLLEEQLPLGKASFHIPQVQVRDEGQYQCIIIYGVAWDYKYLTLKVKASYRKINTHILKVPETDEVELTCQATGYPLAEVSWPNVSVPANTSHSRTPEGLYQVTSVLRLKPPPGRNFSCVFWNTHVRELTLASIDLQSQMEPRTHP
Human PD-L1-FLAG tag protein, sequence (Q9NZQ7 19-290): as the sequence (Q9NZQ7 19-290) above
PD-L1 on MC38 huPD-L1 tumors, sequence (Q9NZQ7 19-290): as above
PD-L1 on monocytes (Macaca fascicularis, UniProt G7PSE7), sequence (G7PSE7 19-290): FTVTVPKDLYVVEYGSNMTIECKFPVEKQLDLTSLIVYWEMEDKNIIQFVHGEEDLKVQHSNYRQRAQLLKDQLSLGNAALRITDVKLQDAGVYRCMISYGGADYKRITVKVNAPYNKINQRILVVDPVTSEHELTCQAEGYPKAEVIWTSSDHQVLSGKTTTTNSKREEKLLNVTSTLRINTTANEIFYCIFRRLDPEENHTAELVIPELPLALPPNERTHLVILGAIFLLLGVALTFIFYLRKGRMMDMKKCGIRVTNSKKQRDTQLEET

For the compound `CCCC[C@H]1C(=O)N(C)CC(=O)N[C@@H](CC(=O)O)C(=O)N[C@@H](C(C)C)C(=O)N(C)[C@@H](Cc2ccccc2)C(=O)N[C@@H](Cc2ccc(O)cc2)C(=O)N(C)CC(=O)N[C@@H](Cc2c[nH]c3ccccc23)C(=O)N[C@@H](Cc2ccc(O)cc2)C(=O)N[C@@H](CC(C)C)C(=O)N[C@H](C(=O)NCC(N)=O)CSCC(=O)N[C@@H](Cc2ccccc2)C(=O)N(C)[C@@H](Cc2ccccc2)C(=O)N1C` [peptide 71, reference compound] ({CH2CO}-F[NMeF][NMeNle][Sar]DV[NMeF]Y[Sar]WYLCG-NH2; thioether N-13; N-terminus and C-terminus assumed), on PD-L1 (aa 19-239) [1], the “SEC-MALS peak of PD-L1 in presence of compound” value is reported as “approximately 33 kDa”.
As for `Cc1c(Nc2nccc3cc(CN4CC[C@@H](O)C4)cnc23)cccc1-c1cccc(-c2nc3cc(CN4CC[C@@H](C(=O)O)C4)cc(C#N)c3o2)c1C` [INCB086550], the IC50 at human PD-L2 was more than 10000 nM; at cynomolgus PD-L1, 4.9 ± 1.6 nM; at mouse PD-L1, more than 10000 nM; in [14] it was 6.3 ± 2.5 nM; on rat PD-L1, 1.9 nM and < 1.5 nM; at PD-L1 [18] it was 3.1 ± 1.2 nM. Besides, the “Inhibition of binding of PD-L2 to human PD-1” value at human PD-L2 (concentrations up to 10 µmol/L) was “not inhibited”. Further, the “Antitumor activity in immunodeficient mice” value with MDA-MB-231 tumors and in the series with MC38 huPD-L1 tumors [21] was “abolished” in each case. Moreover, the EC50 in the series with NFAT signaling was 21.4 ± 8.4 nM; on PD-L1 on monocytes [2], 88 nM; on PD-L1 on monocytes [4] it was 4.5 nM; in series [13] (MBT2-PD-L1 high), 0.1 nM; in series [13] (MBT2-PD-L1 low), 3.7 nM; in [13] (MBT2-PD-L1 medium), 0.4 nM. On PD-L1 on monocytes [2] (read-out: whole blood IC90), the IC90 is 792 nM. Also, the “Binding stoichiometry n (ITC)” value at PD-L1 (aa 19-239) [3] amounted to 0.6. In the series “Tolerability in mice”, the “Adverse effects in mice” value was “no adverse effects”. Also, the “Increase in plasma cell-free PD-L1 vs baseline” value in series [5] (all dose levels, cycle 2 day 1) was 1.4 fold. For the same compound, the “Increase in plasma IFNγ vs baseline” value in [5] (cycle 1 day 8) is 3.8 fold. Further, the “Increase in plasma CXCL9 vs baseline” value in series [5] (cycle 2 day 1) was 1.8 fold. Besides, in series [5] (cycle 2 day 1), the “Increase in plasma CXCL10 vs baseline” value is 1.4 fold. Also, the “Binding of atezolizumab and durvalumab to PD-L1 (SPR)” value in series [6] is listed as “inhibited binding”. The “Binding of atezolizumab and durvalumab to PD-L1 after pretreatment” value on PD-L1 [7] is recorded as “blocked binding”. The “Dose at which associated events were observed (minimal to mild, nonadverse)” value in [8] is recorded as 1,000 mg/kg/day. Also, the Tolerability result in [8] (setting [23]) and in series [15] (setting [23]) was “well tolerated” in each case. Besides, the “tumor growth inhibition (TGI)” value in the series with MC38 huPD-L1 tumors [9] (2 mg/kg p.o. b.i.d., day 16) is recorded as 32%; in the series on MC38 huPD-L1 tumors [9] (20 mg/kg p.o. b.i.d., day 16) it was 66%; in the series with MC38 huPD-L1 tumors [9] (200 mg/kg p.o. b.i.d., day 16) it was 69%. Further, the “PD-L1 internalization, clone 28-8 staining” value on PD-L1 in CHO PD-L1 cells [10] was “internalization of PD-L1 and increased cytoplasmic staining”. In addition, the “Binding to mouse PD-L1” value on mouse PD-L1 (HTRF) is given as “not detected”. Besides, on PD-L1 on monocytes [11], the “Dose reaching maximum inhibition of free PD-L1” value was 200 mg b.i.d. For the same compound, the “Inhibition of PD-1/PE binding” value at PD-L1 on CHO PD-L1 cells [12] is recorded as more than 90%. This compound also displayed a Doses with emesis in series [15] (no evidence of target organ toxicity) not below 200 mg/kg/day. Besides, the “Maximal levels of IFNγ, induction” value in series [16] was 425%. In addition, in series [16] (cell-based assays), the Toxicity to cells entry is recorded as “No overt toxicity”. Also, at PD-L1 on CHO PD-L1 cells [17], the “Epitope occupancy of PD-L1, clone MIH1” value is more than 90%. For the same compound, on PD-L1 on CHO PD-L1 cells [17], the “Reduction of PD-L1 staining, clone 28-8 (total cell-surface PD-L1)” value is reported as “approximately 70%”. Further, the Preliminary clinical activity entry with target lesion is “decrease in target lesion volume”. At PD-L1 (aa 19-239) [1], the “SEC-MALS peak of PD-L1 in presence of compound” value is on record as approximately 69 kDa. Moreover, at PD-L1 on CHO PD-L1 cells [19], the “Time to maximal PD-L1 internalization” value was approximately 4 h. For the same compound, the “Change in total PD-L1 in cells” value on PD-L1 in CHO PD-L1 cells [20] was “decrease of overall PD-L1”. Further, the “Maximum reduction of occupied PD-L1” value in [22] is recorded as more than 90%.
For “atezolizumab: clinical anti–PD-L1 monoclonal antibody [reference compound]”, the “tumor growth inhibition (TGI)” value in the series with MC38 huPD-L1 tumors [9] (5 mg/kg intraperitoneally every 5 days) was determined as 73%. In the series with PD-L1 in CHO PD-L1 cells [10], the “PD-L1 internalization, clone 28-8 staining” value is recorded as “only minor levels of PD-L1 internalization”. Further, in series [16], the “Maximal levels of IFNγ, induction” value was 433%.
